# Experimental data: patent publication US8110543B2, “Anti-invasive and anti-angiogenic compositions” (Angstrom Pharmaceuticals, Inc., priority 1997, dated 2012)
# Columns and labels:
# [1] = design: species or system mice; conditions: mouse, in vivo
# Method: CDDP was tested at a dose of 3 mg/kg/day given every other day from day 4×6 administrations, which converts to approximately 6 mg/m^2 per administration. This is a substantially lower dose than that typically given to human patients (20-40 mg/m^2 for most tumors although doses as high as 200 mg/m^2 have been reported in neuroblastomas; the dose depends on the regimen used) since dose limiting toxicity (as exemplified by weight loss) occurs in mice at doses greater than 6 mg/m^2.
# [2] = tested on: U87 tumors; assay: U87 glioblastoma orthotopic model; type: in vivo, mice; conditions: tumor sections, mouse-CD31 immunostaining
# Method: U87 cells were inoculated into the ventricles of nude mice and treatment was initiated 72 hrs after inoculation. Tumor volume was determined using caliper measurements after euthanasia and necropsy.
# A: Control; B: Å6 only; C: CDDP only; D: Å6+CDDP.
# U87 tumors were surgically inoculated into the cerebral ventricles of mice. The animals were allowed to recover for 72 hours at which time treatment with Å6 (75 mg/kg/day IP bid), CDDP (3 mg/kg/day given every other day from day 4×6 administrations), or a combination of Å6+CDDP was initiated,
# Animals were treated for 21 days at which time they were euthanized and their brains evaluated for the presence of tumor. Transverse sections were stained with hematoxylin and eosin (H&E).
# Tumor sections were also evaluated for microvessel density using antibodies specific for mouse-CD31 in immunostaining. Very few CD31^+ foci were evident in animals treated with the combination of Å6+CDDP.
# Tumors were established as in the previous section, and the same therapeutic regimens were employed. Treatment was discontinued at day 21, and survival was measured. Control animals appeared moribund around day 25 and all of the animals in this group were dead by day 30.
structure (smiles),measurement,setting,value
"[NH2][Pt]([NH2])([Cl])[Cl] [CDDP, cisplatin, reference compound]",dose at which dose limiting toxicity (weight loss) occurs,[1],greater than 6 mg/m^2
same,"microvessel density (CD31+ foci), angiogenesis",[2],inhibited angiogenesis to some extent
